The results in this text go back to US5622962A, “5α-reductase inhibitors” (priority 1995, dated 1997).

For assay [1], the target named is T1, Type I 5α-Reductase from Human Scalp (Homo sapiens, UniProt P18405).
T1 construct: Scalp punch biopsies from graft recipient sites were obtained from human hair transplant procedures; from tissue; host or cells: human scalp punch biopsies (hair transplant graft recipient sites), homogenate, 100,000×g pellet
T1 sequence (P18405 1-259): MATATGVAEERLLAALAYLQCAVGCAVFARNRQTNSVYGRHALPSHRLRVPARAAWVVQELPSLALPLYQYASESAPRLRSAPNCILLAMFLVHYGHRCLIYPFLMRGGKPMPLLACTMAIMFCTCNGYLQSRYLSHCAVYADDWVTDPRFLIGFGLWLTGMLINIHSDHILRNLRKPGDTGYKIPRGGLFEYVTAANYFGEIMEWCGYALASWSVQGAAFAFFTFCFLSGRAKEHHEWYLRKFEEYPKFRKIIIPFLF
Kind of assay: Human Type I 5α-reductase assay (conversion of [3H]-testosterone to 5α-reduced metabolites). It is filed as biochemical. Conditions: pH 7.5, 0.3 μM; 50 nM [3H]-testosterone, pH 7.5, 25°, 180 min; compared to control reaction mixtures; read-out: percent inhibition of Type I AR.

Assay [2] addresses T2, Type II 5α-Reductase from Human Prostate (Homo sapiens, UniProt P31213).
T2 construct: The same procedure as above was used for preparations using tissue from prostate surgery; from tissue; host or cells: human prostate tissue from surgery, homogenate, 100,000×g pellet
T2 sequence (P31213 1-254): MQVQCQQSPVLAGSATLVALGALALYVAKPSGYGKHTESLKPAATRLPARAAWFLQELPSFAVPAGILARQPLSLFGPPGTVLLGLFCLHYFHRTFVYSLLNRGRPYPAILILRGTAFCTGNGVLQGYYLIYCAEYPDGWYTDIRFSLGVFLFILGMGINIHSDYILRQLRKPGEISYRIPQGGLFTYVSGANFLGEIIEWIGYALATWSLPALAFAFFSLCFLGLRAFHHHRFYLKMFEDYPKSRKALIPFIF
Kind of assay: Human Type II 5α-reductase assay (conversion of [3H]-testosterone to 5α-reduced metabolites). It is filed as biochemical. The settings on record: pH 5.5, 0.3 μM; sodium acetate pH 5.5, 25°, 30 min; compared to control reaction mixtures; read-out: percent inhibition of Type II AR.

As a reminder, the inhibition is how much of the control response was suppressed. Take `CN1C(=O)CC[C@]2(C)c3ccc(-c4c(F)cccc4F)cc3CC[C@@H]12` [Example 228, (+)-(4aR)-(10bR)-4-methyl-8-(2,6-difluorophenyl)-10b-methyl-1,2,3,4,4a,5,6,10b-octahydrobenzo[f]quinolin-3-one]: the inhibition at 0.3 µM in assay [1] is 77%; in assay [2], 32%.
The like results for `CN1C(=O)CC[C@]2(C)c3ccc(-c4cc(F)ccc4F)cc3CC[C@@H]12` [Example 229, (+)-(4aR)-(10bR)-4-methyl-8-(2,5-difluorophenyl)-10b-methyl-1,2,3,4,4a,5,6,10b-octahydrobenzo[f]quinolin-3-one] were, in that order, 97% and 11%.
On to `CN1C(=O)CC[C@]2(C)c3ccc(-c4c(F)cc(F)cc4F)cc3CC[C@@H]12` [Example 230, (+)-(4aR)-(10bR)-4-methyl-8-(2,4,6-trifluorophenyl)-10b-methyl-1,2,3,4,4a,5,6,10b-octahydrobenzo[f]quinolin-3-one], for which the inhibition at 0.3 µM was determined as 86% in assay [1] and 29% in assay [2].
For `CN1C(=O)CC[C@]2(C)c3ccc(-c4ccc(F)cc4F)cc3CC[C@@H]12` [Example 231, (+)-(4aR)-(10bR)-4-methyl-8-(2,4-difluorophenyl)-10b-methyl-1,2,3,4,4a,5,6,10b-octahydrobenzo[f]quinolin-3-one], the inhibition at 0.3 µM was 80% in assay [1] and 21% in assay [2].
In the case of `CN1C(=O)CC[C@]2(C)c3ccc(-c4ccc(F)c(F)c4F)cc3CC[C@@H]12` [Example 232, (+)-(4aR)-(10bR)-4-methyl-8-(2,3,4-trifluorophenyl)-10b-methyl-1,2,3,4,4a,5,6,10b-octahydrobenzo[f]quinolin-3-one], the values for the inhibition at 0.3 µM in assay [1] and in assay [2] were 94% and 27%, respectively.
Consider `CN1C(=O)CC[C@]2(C)c3ccc(-c4ccc(SCc5ccc([N+](=O)[O-])cc5)cc4)cc3CC[C@@H]12` [Example 233, (+)-(4aR)-(10bR)-4-methyl-8-(4-[4-nitrobenzyl]thiophenyl)-10b-methyl-1,2,3,4,4a,5,6,10b-octahydrobenzo[f]quinolin-3-one], for which the inhibition at 0.3 µM in assay [1] came to 95%; in assay [2], 38%.
The like results for `CN1C(=O)CC[C@]2(C)c3ccc(-c4ccc5c6c(cccc46)C(=O)N(CCN4CCOCC4)C5=O)cc3CC[C@@H]12` [Example 234, (+)-(4aR)-(10bR)-4-methyl-8-(2-(2-[1-morpholino]ethyl)-1H-benzo<de>isoquinolin-6-yl-1,3-(2H)dione)-10b-methyl-1,2,3,4,4a,5,6,10b-octahydrobenzo[f]quinolin-3-one] were, in that order, 83% and 30%.
Regarding `CN1C(=O)CC[C@]2(C)c3ccc(-c4ccncc4)cc3CC[C@@H]12` [Example 235, (+)-(4aR)-(10bR)-4-methyl-8-(4-pyridinyl)-10b-methyl-1,2,3,4,4a,5,6,10b-octahydrobenzo[f]quinolin-3-one], the inhibition at 0.3 µM in assay [1] stood at 28%; in assay [2], 12%.
Regarding `Cc1ccc(S(=O)(=O)n2ccc3cc(-c4ccc5c(c4)CC[C@H]4N(C)C(=O)CC[C@]54C)ccc32)cc1` [Example 236, (+)-(4aR)-(10bR)-4-methyl-8-(1-p-toluenesulfonylindol-5-yl)-10b-methyl-1,2,3,4,4a,5,6,10b-octahydrobenzo[f]quinolin-3-one], the inhibition at 0.3 µM in assay [1] is 84%; in assay [2] it was 67%.
For `CC(=O)N1CCc2cc(-c3ccc4c(c3)CC[C@H]3N(C)C(=O)CC[C@]43C)cc([N+](=O)[O-])c21` [Example 237, (+)-(4aR)-(10bR)-4-methyl-8-(1-acetyl-7-nitroindolin-5-yl)-10b-methyl-1,2,3,4,4a,5,6,10b-octahydrobenzo[f]quinolin-3-one] the same measures were 33% and 13%.
For the compound `CC(=O)N1CCc2cc(-c3ccc4c(c3)CC[C@H]3N(C)C(=O)CC[C@]43C)ccc21` [Example 238, (+)-(4aR)-(10bR)-4-methyl-8-(1-acetylindolin-5-yl)-10b-methyl-1,2,3,4,4a,5,6,10b-octahydrobenzo[f]quinolin-3-one], the inhibition at 0.3 µM in assay [1] stood at 72%; in assay [2], 29%.
Regarding `CN1C(=O)CC[C@]2(C)c3ccc(-c4cccc5cccnc45)cc3CC[C@@H]12` [Example 239, (+)-(4aR)-(10bR)-4-methyl-8-(8-quinolinyl)-10b-methyl-1,2,3,4,4a,5,6,10b-octahydrobenzo[f]quinolin-3-one], the inhibition at 0.3 µM in assay [1] was 42%; in assay [2], 27%.
For `CN1C(=O)CC[C@]2(C)c3ccc(-c4cccc5ncccc45)cc3CC[C@@H]12` [Example 240, (+)-(4aR)-(10bR)-4-methyl-8-(5-quinolinyl)-10b-methyl-1,2,3,4,4a,5,6,10b-octahydrobenzo[f]quinolin-3-one] the same measures were 55% and 17%.
For the compound `CN1C(=O)CC[C@]2(C)c3ccc(-c4cccc5cnccc45)cc3CC[C@@H]12` [Example 241, (+)-(4aR)-(10bR)-4-methyl-8-(5-isoquinolinyl)-10b-methyl-1,2,3,4,4a,5,6,10b-octahydrobenzo[f]quinolin-3-one], the inhibition at 0.3 µM in assay [1] is 65%; in assay [2] it was 33%.
As for `CN1C(=O)CC[C@]2(C)c3ccc(-c4ccccn4)cc3CC[C@@H]12` [Example 242, (+)-(4aR)-(10bR)-4-methyl-8-(2-pyridinyl)-10b-methyl-1,2,3,4,4a,5,6,10b-octahydrobenzo[f]quinolin-3-one], the inhibition at 0.3 µM turned out to be 5% in assay [1] and 24% in assay [2].
Take `CN1C(=O)CC[C@]2(C)c3ccc(-c4cc(F)c([N+](=O)[O-])cc4F)cc3CC[C@@H]12` [Example 243, (+)-(4aR)-(10bR)-4-methyl-8-(2,5-difluoro-4-nitrophenyl)-10b-methyl-1,2,3,4,4a,5,6,10b-octahydrobenzo[f]quinolin-3-one]: the values for the inhibition at 0.3 µM in assay [1] and in assay [2] were 88% and 54%, respectively.
As to `CN1C(=O)CC[C@]2(C)c3ccc(-c4ccc5ncccc5c4)cc3CC[C@@H]12` [Example 244, (+)-(4aR)-(10bR)-4-methyl-8-(6-quinolinyl)-10b-methyl-1,2,3,4,4a,5,6,10b-octahydrobenzo[f]quinolin-3-one], the inhibition at 0.3 µM in assay [1] came to 51%; in assay [2] it was 32%.
Consider `CN1C(=O)CC[C@]2(C)c3ccc(-c4ccc5c6c(cccc46)C(=O)N(C4CCN(Cc6ccccc6)CC4)C5=O)cc3CC[C@@H]12` [Example 246, (+)-(4aR)-(10bR)-4-methyl-8-[2-(4-[N-benzyl]piperidinyl)-1H-benzo<de>isoquinolin-6-yl-1,3-(2H)dione]-10b-methyl-1,2,3,4,4a,5,6,10b-octahydrobenzo[f]quinolin-3-one], for which the inhibition at 0.3 µM is 92% in assay [1] and 45% in assay [2].
The like results for `CN1C(=O)CC[C@]2(C)c3ccc(-c4ccc5ccccc5n4)cc3CC[C@@H]12` [Example 247, (+)-(4aR)-(10bR)-4-methyl-8-(2-quinolinyl)-10b-methyl-1,2,3,4,4a,5,6,10b-octahydrobenzo[f]quinolin-3-one] were, in that order, 60% and 32%.
As to `CN1C(=O)CC[C@]2(C)c3ccc(-c4ccc5oc(=O)ccc5c4)cc3CC[C@@H]12` [Example 248, (+)-(4aR)-(10bR)-4-methyl-8-(2-oxo-1-benzopyran-6-yl)-10b-methyl-1,2,3,4,4a,5,6,10b-octahydrobenzo[f]quinolin-3-one], the results for the inhibition at 0.3 µM in assay [1] and in assay [2] were 54% and 22%, respectively.
In the case of `CN1C(=O)CC[C@]2(C)c3ccc(-c4ccc5ncsc5c4)cc3CC[C@@H]12` [Example 249, (+)-(4aR)-(10bR)-4-methyl-8-(6-benzothiazolyl)-10b-methyl-1,2,3,4,4a,5,6,10b-octahydrobenzo[f]quinolin-3-one], the inhibition at 0.3 µM in assay [1] is 69%; in assay [2], 24%.
For `CN1C(=O)CC[C@]2(C)c3ccc(-c4ccc5c(ccn5C(=O)OC(C)(C)C)c4)cc3CC[C@@H]12` [Example 250, (+)-(4aR)-(10bR)-4-methyl-8-(1-[t-butoxycarbonyl]-5-indolyl)-10b-methyl-1,2,3,4,4a,5,6,10b-octahydrobenzo[f]quinolin-3-one], the inhibition at 0.3 µM in assay [1] turned out to be 83%; in assay [2], 1%.
On to `CN1C(=O)CC[C@]2(C)c3ccc(-c4nc5ccccc5o4)cc3CC[C@@H]12` [Example 251, (+)-(4aR)-(10bR)-4-methyl-8-(2-benzoxazolyl)-10b-methyl-1,2,3,4,4a,5,6,10b-octahydrobenzo[f]quinolin-3-one], for which the inhibition at 0.3 µM in assay [1] was found to be 69%; in assay [2] it was 36%.
On to `CN1C(=O)CC[C@]2(C)c3ccc(-c4nc5ccccc5s4)cc3CC[C@@H]12` [Example 252, (+)-(4aR)-(10bR)-4-methyl-8-(2-benzothiazolyl)-10b-methyl-1,2,3,4,4a,5,6,10b-octahydrobenzo[f]quinolin-3-one], for which the inhibition at 0.3 µM in assay [1] was 89%; in assay [2] it was 54%.
